US8614064B2, “Methods of diagnosing atherosclerosis by measuring ApoCI” (The Johns Hopkins University, priority 2003, dated 2013)

Legend:
[1] = test system: human aortic smooth muscles cells (ASMC); assay: Fluorescence microscope quantitative assay of apoptotic death (DAPI staining); assay type: cell-based; conditions: C2-ceramide 10 μmol/L + ApoCI 2.5 μg/mL + GW4869 20 μmol/L, 24 h; control 2.2%
Method: (§1) FIGS. 1A-1C depict the effect of apolipoproteins on apoptosis in human aortic smooth muscles cells (ASMC). ASMC were grown on sterilized glass cover slips and incubated for 24 hours with media alone (control), ApoCIII (negative control, 2.5 μg/mL medium), ApoCI (2.5 μg/mL medium), ApoCI-enriched HDL (1 μg apoA-I/mL medium), or ApoCI-poor HDL (5 μg apoA-I/mL medium) for 24 hours. Cells were then fixed with ethanol-acetic acid (3:1 volume/volume) and washed 3 times with phosphate-buffered saline. The cells were then stained with DAPI reagent, mounted on a glass cover slide, and subjected to fluorescence microscopy. FIG. 1A: The nucleus of normal cells stains blue and the nucleus of apoptotic cells stains is fragmented white. FIG. 1B: 300 to 500 cells in each sample were counted and the percent of apoptotic cells was plotted. Values are mean±SD; **P<0.01, ***P<0.001. FIG. 1C: DNA ladder assay. Confluent cultures of ASMC were incubated with control medium alone, ApoCI (2.5 μg/mL medium), ApoCIII (negative control, 2.5 μg/mL medium), and TNF-α (positive control, 20 ng/mL medium). Genomic DNA was extracted and 10 μg DNA was subjected to agarose gel electrophoresis. The gels were calibrated with commercially available DNA standards. After electrophoresis, the gels were stained with ethidium bromide and then photographed.
FIGS. 2A-2B depict the effect of ApoCI, the N-SMase inhibitor, GW4869, and C-2 ceramide on apoptosis in cultured human ASMC. FIG. 2A: ASMC (1×10^3) were seeded on sterilized glass cover slips and grown in tissue culture medium with 10% fetal calf serum for 48 hours. […] Thirty minutes later, vehicle DMSO, ApoCI (2.5 μg/mL), or C2-ceramide (10 μmol/L) were added to dishes, and the incubation continued for 24 hours. The cells were then fixed with ethanol-acetic acid (3:1 v/v), stained with DAPI reagent, assessed by fluorescent microscopy, and photographed. Top to bottom: control cells; cells incubated with ApoCI± the N-SMase inhibitor, GW4869; and cells incubated with ApoCI GW4869, and C2-ceramide. FIG. 2B: The DAPI-stained ASMC from the four experimental conditions described was analyzed for quantitative apoptosis. Mean (SD) from 4 experiments. *P<0.05.
Human AoSMC that were negative for mycoplasma, hepatitis B and C and HIV-1 were purchased from Clonetics (San Diego, Calif.) and cultured in Dulbecco's minimal essential medium (Invitrogen, Carlsbad, Calif.) with 10% fetal bovine serum (Hyclone, Salt Lake City, Utah), 100-units/ml penicillin, 100-μg/ml streptomycin to confluence. The cells were incubated in serum-free medium for 30 min prior to initiating the experiments. Cells were then washed and harvested in PBS, and centrifuged at 1500 rpm for 5 min at 4° C. Protease inhibitors were then added and the pellets stored frozen at −30° C. until use.
1×10^3 cells were grown on sterilized glass cover slips in 6-well trays and treated with ApoCI (2.5 μg/ml medium), ApoCIII (2.5 μg/ml medium), tumor necrosis factor (TNF)-α (30 ng/ml), ApoCI-enriched HDL (1 μg apoA-I/ml medium) and ApoCI-poor HDL (5 μg apoA-I/ml medium). After 24 h incubation, the medium was removed, cells fixed with ethanol:acetic acid […] and stored at 4° C. Next, the fixing solution was removed and cells stored frozen at −30° C. Cover slips were mounted on the microscope slides and stained with DAPI reagent (4,6-diamino-2-phenylindol, dihydrochloride). The stained nuclei were visualized by fluorescence microscopy (Zeiss Axiovert 25). Apoptotic cells were determined after counting—500 cells in a double blind fashion.

[2] = test system: human aortic smooth muscles cells (ASMC); assay: DNA laddering assay; assay type: cell-based; conditions: ApoCI or ApoCIII 2.5 μg/mL, TNF-α positive control
Method: as §1
Cells were treated with either TNF-α (30 ng/ml), ApoCI or ApoCIII (2.5 μg/ml) for 6 h. The cells were then washed twice with minimal essential medium and harvested with buffer (10 mM HEPES, pH 7.4. 5 mM EDTA, 0.25 mM EGTA, 50 mM NaF, 5 mM β-mercaptoethanol, 0.35 M sucrose, 0.1% Nonidet and protease inhibitors, 1 mM phenylmethylsulfonyl fluoride, 2 μg/ml leupeptin and 5 μg/ml pepstatin), and pelleted. Genomic DNA was prepared employing standard protocol. Genomic DNA was subjected to electrophoresis, stained with ethidium bromide and the gel was photographed. The gel was calibrated using DNA fragments of known molecular weight.

N-SMase = assay: Neutral sphingomyelinase assay in treated ASMC ([14C]sphingomyelin substrate); assay type: cell-based, human; conditions: 5 min; ApoCI 2.5 μg/mL, TNF-α 20 ng/mL, ApoCI-enriched HDL 1 μg apoA-I/mL; control 22 nmol/h per mg protein = 100%
Method: FIGS. 3A-3C depict the effects of ApoCI, ApoCIII, TNF-α, ApoCI-enriched HDL, and ApoCI-poor HDL on the activity of N-SMase in ASMC. Confluent cultures of ASMC were preincubated for 30 minutes with serum-free (control) medium, then ApoCI (2.5 μg/mL medium), ApoCIII (2.5 μg/mL medium), TNF-α (20 ng/mL medium) (FIG. 3A, top), or ApoCI-enriched HDL (1 μg apoAI/mL medium), or ApoCI-poor HDL (5 μg apoA-I/mL medium) (FIG. 3B, middle) were added individually to cells. The cells were then incubated and harvested at the indicated time points, and the activity was of N-SMase determined using [^14C]sphingomyelin as substrate. The N-SMase activity in control cells was 22 nmol/h per milligram cell protein, and this value was considered as 100% activity. In a separate experiment (FIG. 3C bottom), cells (0.5×10^5) were seeded in P60 Petri dishes and grown in DMEM supplemented with 10% fetal bovine serum for 5 days. After preincubation of cells for 30 minutes in serum-free medium, increasing amounts of ApoCI were added. After incubation for 10 minutes, cells were harvested, and N-SMase activity was measured.
After stimulation with ApoCI ApoCI-enriched HDL and ApoCI-poor HDL, the cells were washed with 5 ml of PBS and harvested. The pellets were stored frozen at −70° C. and resuspended in 0.5 ml of buffer (100 mM Tris-HCl pH 7.4, 0.1% Triton X-100, 1 mM EDTA and protease inhibitors). The cell suspension was sonicated 3 times (3-s bursts) using a probe sonicator and centrifuged at 500×g at 4° C. for 5 min. The supernatant was used as the enzyme source. 100 μg of protein was assayed for neutral sphingomyelinase activity in a buffer consisting of 50 mM Tris-HCl, pH 7.4, 0.1% Triton X-100, 0.1 mg of bovine serum albumin, 5 mM MgCl2 and […] of [^14C]sphingomyelin (specific activity 50 mCi/mmol, from American Radiolabled Chemicals (St. Louis, Mo.). The samples were incubated at 37° C. for 2 h and terminated with the addition of 1 ml of 10% trichloroacetic acid. The precipitate was pelleted (1000×g at 4° C. for 30 min) and 1 ml of the supernatant was extracted with 1 ml of anhydrous diethyl ether. About 0.5 ml of the aqueous phase was removed for liquid scintillation counting (Ghosh, N., and Chatterjee, S. (1998) J. Biol. Chem. 264, 12554-12561).

increase in the activity of N-SMase at 5 minutes (N-SMase) | Compound | percent apoptotic cells with C2-ceramide added to ApoCI and GW4869 [1] | DNA laddering on agarose gel (FIG. 1C) [2]
– | CCCCCCCCCCCCC/C=C/[C@@H](O)[C@H](CO)NC(C)=O [C2-ceramide] | ~12.5% | –
~2 fold | tumor necrosis factor α [TNF-α] | – | exhibited DNA laddering
